Measurements taken from PubChem BioAssay (NCI).
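Each compound was tested at five concentrations against cells in 96-well plates for 48 hours. TGI is the concentration that stops growth completely.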

Key:
Test in all cases: growth of human tumour cells (NCI), 48 h
[1] = test system: SK-MEL-28 melanoma
[2] = test system: ACHN renal
[3] = test system: TK-10 renal
[4] = test system: NCI-H226 lung
[5] = test system: NCI-H460 lung
[6] = test system: UACC-257 melanoma
[7] = test system: SK-OV-3 ovarian
[8] = test system: HCT-116 colon
[9] = test system: NCI-H522 lung
[10] = test system: T-47D breast
[11] = test system: COLO 205 colon
[12] = test system: SF-295 CNS
[13] = test system: K-562 leukemia
[14] = test system: HS 578T breast
[15] = test system: UACC-62 melanoma
[16] = test system: LOX IMVI melanoma
[17] = test system: HOP-92 NSCLC
[18] = test system: A549 NSCLC
[19] = test system: A498 renal
[20] = test system: SR leukemia
[21] = test system: HOP-62 NSCLC
[22] = test system: UO-31 renal
[23] = test system: NCI-H23 lung
[24] = test system: MDA-N
[25] = test system: CAKI-1 renal
[26] = test system: SNB-75 CNS
[27] = test system: HT29 colon
[28] = test system: IGROV1 ovarian
[29] = test system: CCRF-CEM leukemia
[30] = test system: MDA-MB-231 breast
[31] = test system: SNB-19 CNS
[32] = test system: PC-3 prostate
[33] = test system: SF-268 CNS
[34] = test system: SW-620 colon
[35] = test system: SK-MEL-2 melanoma
[36] = test system: KM12 colon
[37] = test system: NCI/ADR-RES ovarian
[38] = test system: SN12C renal
[39] = test system: MCF7 breast
[40] = test system: OVCAR-4 ovarian
[41] = test system: MDA-MB-435
[42] = test system: OVCAR-3 ovarian
[43] = test system: SF-539 CNS
[44] = test system: SK-MEL-5 melanoma
[45] = test system: U251 CNS
[46] = test system: MOLT-4 leukemia
[47] = test system: OVCAR-5 ovarian
[48] = test system: HL-60(TB) leukemia
[49] = test system: EKVX NSCLC
[50] = test system: 786-0 renal
[51] = test system: RPMI-8226 leukemia
[52] = test system: HCT-15 colon
[53] = test system: DU-145 prostate
[54] = test system: OVCAR-8 ovarian
[55] = test system: M14 melanoma
[56] = test system: HCC-2998 colon
[57] = test system: RXF 393 renal
[58] = test system: MALME-3M melanoma
[59] = test system: BT-549 breast

Compound `C=C(C)CCC1CCCCC(CN(C)C)C1=O` (centres undefined) has a TGI [1] greater than 100 µM, a TGI [2] greater than 100 µM and a TGI [3] greater than 100 µM. It also gave a TGI [4] greater than 100 µM, a TGI [5] greater than 100 µM and a TGI [6] greater than 100 µM. The TGI [7] was greater than 100 µM, the TGI [8] was greater than 100 µM and the TGI [9] was 27.2 µM. For the same compound, the TGI [10] was greater than 100 µM, the TGI [11] was greater than 100 µM and the TGI [12] was greater than 100 µM. For the same compound, the TGI [13] was greater than 100 µM, the TGI [14] was greater than 100 µM and the TGI [15] was greater than 100 µM. The TGI [16] was greater than 100 µM, the TGI [17] was greater than 100 µM and the TGI [18] was greater than 100 µM. For the same compound, the TGI [19] was greater than 100 µM, the TGI [20] was greater than 100 µM and the TGI [21] was greater than 100 µM. The TGI [22] was greater than 100 µM, the TGI [23] was greater than 100 µM and the TGI [24] was greater than 100 µM. It also gave a TGI [25] greater than 100 µM, a TGI [26] greater than 100 µM and a TGI [27] greater than 100 µM. It also gave a TGI [28] greater than 100 µM, a TGI [29] greater than 100 µM and a TGI [30] greater than 100 µM. The TGI [31] was greater than 100 µM, the TGI [32] was greater than 100 µM and the TGI [33] was greater than 100 µM. For the same compound, the TGI [34] was greater than 100 µM, the TGI [35] was greater than 100 µM and the TGI [36] was greater than 100 µM. It also gave a TGI [37] greater than 100 µM, a TGI [38] greater than 100 µM and a TGI [39] greater than 100 µM. The TGI [40] was greater than 100 µM, the TGI [41] was greater than 100 µM and the TGI [42] was greater than 100 µM. It also gave a TGI [43] greater than 100 µM, a TGI [44] greater than 100 µM and a TGI [45] greater than 100 µM. The TGI [46] was greater than 100 µM, the TGI [47] was greater than 100 µM and the TGI [48] was greater than 100 µM. For the same compound, the TGI [49] was greater than 100 µM, the TGI [50] was greater than 100 µM and the TGI [51] was greater than 100 µM. The TGI [52] was greater than 100 µM, the TGI [53] was greater than 100 µM and the TGI [54] was greater than 100 µM. For the same compound, the TGI [55] was greater than 100 µM.

`CC(C)(C)OC(=O)C1=C(C(=O)OC(C)(C)C)SC2(S1)C(C(=O)OC(C)(C)C)=C(C(=O)OC(C)(C)C)Sc1c2ssc1=O` was tested, and the TGI [1] was greater than 100 µM, the TGI [2] was greater than 100 µM and the TGI [3] was greater than 100 µM. The TGI [5] was greater than 100 µM, the TGI [6] was greater than 100 µM and the TGI [56] was greater than 100 µM. For the same compound, the TGI [7] was greater than 100 µM, the TGI [8] was greater than 100 µM and the TGI [9] was greater than 100 µM. For the same compound, the TGI [10] was greater than 100 µM, the TGI [11] was greater than 100 µM and the TGI [12] was greater than 100 µM. The TGI [13] was greater than 100 µM, the TGI [14] was greater than 100 µM and the TGI [15] was greater than 100 µM. The TGI [16] was greater than 100 µM, the TGI [17] was greater than 100 µM and the TGI [18] was greater than 100 µM. For the same compound, the TGI [19] was greater than 100 µM, the TGI [21] was greater than 100 µM and the TGI [22] was greater than 100 µM. It also gave a TGI [23] greater than 100 µM, a TGI [57] greater than 100 µM and a TGI [24] greater than 100 µM. It also gave a TGI [25] greater than 100 µM, a TGI [27] greater than 100 µM and a TGI [28] greater than 100 µM. It also gave a TGI [29] greater than 100 µM, a TGI [30] greater than 100 µM and a TGI [31] greater than 100 µM. The TGI [32] was greater than 100 µM, the TGI [33] was greater than 100 µM and the TGI [34] was greater than 100 µM. For the same compound, the TGI [35] was greater than 100 µM, the TGI [36] was greater than 100 µM and the TGI [37] was greater than 100 µM. It also gave a TGI [38] greater than 100 µM, a TGI [58] greater than 100 µM and a TGI [39] greater than 100 µM. It also gave a TGI [40] greater than 100 µM, a TGI [41] greater than 100 µM and a TGI [42] greater than 100 µM. For the same compound, the TGI [44] was greater than 100 µM, the TGI [59] was greater than 100 µM and the TGI [45] was greater than 100 µM. The TGI [46] was 95.9 µM, the TGI [47] was greater than 100 µM and the TGI [48] was greater than 100 µM. The TGI [49] was greater than 100 µM, the TGI [51] was greater than 100 µM and the TGI [52] was greater than 100 µM. For the same compound, the TGI [53] was greater than 100 µM, the TGI [54] was greater than 100 µM and the TGI [55] was greater than 100 µM.
